GI50 and TGI data for seven compounds are collected here from PubChem BioAssay (NCI).

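Five concentrations, 48 hours, 96-well plates. GI50 is the concentration that inhibits growth by half. TGI denotes the concentration required for complete inhibition of growth.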 Bounds are passed on as bounds.

What all share (test): NCI anticancer screen, dose series, 48 h
Assay [1] relates to HOP-92 NSCLC.
For assay [2], the system named is DU-145 prostate.
Assay [3] has as its system HT29 colon.
For assay [4], the system named is NCI-H460 lung.
Assay [5] concerns UACC-62 melanoma.
Assay [6] deals with NCI-H522 lung.
Assay [7] concerns A498 renal.
The test system of assay [8] is ACHN renal.
Assay [9] deals with HL-60(TB) leukemia.
In assay [10] the test system is U251 CNS.

Take `COc1cc2c(cc1OC(C)C)[C@H](c1ccc(Cl)cc1)N(c1ccc(N(C)CC3CCC(N4CCN(C)C(=O)C4)CC3)cc1)C(=O)C2` (stereo not given in full): the GI50 in [1] was 1.98 µM; in assay [2], 5.3 µM; in [3], 2.7 µM; in assay [4], 0.531 µM; in assay [5], 0.521 µM; in assay [6], 3.9 µM. Besides, the GI50 was 1.38 µM in [7], 0.32 µM in assay [8], 2.19 µM in [9] and 3.34 µM in assay [10]. For the same compound, the TGI stood at 4.85 µM in assay [1]; 11.2 µM in assay [2]; 7.79 µM in [3]; 4.43 µM in [4]; 3.52 µM in assay [5]; 10.4 µM in assay [6]. The TGI in assay [7] was 6.49 µM; in assay [8], 3.62 µM; in assay [9] it was 5.87 µM; in assay [10] it was 8.44 µM.
For the compound `Nc1nc(/C=C\c2ccc([N+](=O)[O-])s2)nc(N2CCN(c3ccccc3)CC2)n1`, the GI50 in [1] is 22.8 µM; in assay [2], 21.9 µM; in [3] it was 27.5 µM; in assay [4], 24.1 µM; in assay [5] it was 13.6 µM; in assay [6], 16 µM. The GI50 in assay [7] is 0.0746 µM; in assay [8], 19 µM; in [9], 18.8 µM; in assay [10] it was 21.6 µM. The TGI in assay [1] was found to be 57.1 µM; in [2], 51.4 µM; in [3], 70.4 µM; in assay [4] it was 59.1 µM; in [5], 30.8 µM; in [6] it was 31.5 µM. Moreover, the TGI in assay [7] is 15.5 µM; in assay [8], 41.4 µM; in assay [9], 54.2 µM; in assay [10], 56 µM.
On to `O=C1Nc2c(ccc(Cl)c2Cl)/C1=C/c1cc(Br)c(O)c(Br)c1`, for which the GI50 in assay [1] is 7.17 µM; in [2], 14.3 µM; in assay [3], 4.05 µM; in assay [4], 3.13 µM; in assay [5] it was 2.49 µM; in assay [6] it was 3.06 µM. The GI50 is 3.9 µM in [7], 9.86 µM in assay [8], 3.01 µM in assay [9] and 6.42 µM in assay [10]. Moreover, the TGI in [1] was 62.3 µM; in assay [2], above 100 µM; in assay [3] it was 23.7 µM; in assay [4], 16.9 µM; in assay [5], 13.3 µM; in [6] it was above 28.6 µM. Moreover, the TGI was 23.3 µM in assay [7], above 86.4 µM in [8], above 23.8 µM in assay [9] and 43.1 µM in assay [10].
As to `CNC(=O)c1c(C)oc2cc(Oc3ncnc4cc(OC)c(OC)cc34)ccc12`, the GI50 was 3.2 µM in assay [1]; above 100 µM in assay [2]; above 100 µM in [3]; above 100 µM in [4]; above 100 µM in [5]; above 100 µM in assay [6]. Further, the GI50 in assay [7] was 0.946 µM; in assay [8] it was above 100 µM; in [9], above 100 µM; in assay [10], 5.51 µM. The TGI in assay [1], in [2], in assay [3], in assay [4], in assay [5] and in assay [6] was above 100 µM throughout. In addition, the TGI in assay [7] was 5.44 µM; in assay [8] it was above 100 µM; in assay [9], above 100 µM; in assay [10], above 100 µM.
On to `CN(Cc1ccccc1)Cn1ccnc1`, for which the TGI in assay [1] was above 100 µM; in [2], above 100 µM; in assay [3], above 100 µM; in assay [4], above 80.6 µM; in assay [5], above 100 µM; in [6], above 100 µM. In addition, the TGI in [7], in [8], in assay [9] and in [10] was above 100 µM throughout.
As to `Cc1cnc2n1S(=O)(=O)c1cc(C(=O)Nc3cccc4nsnc34)c(Cl)cc1S2`, the GI50 in assay [1] was 18.3 µM; in [2], 25.5 µM; in assay [3], 32.3 µM; in assay [4] it was 18 µM; in [5] it was 17.1 µM; in assay [6], 47.6 µM. Further, the GI50 was 13.8 µM in assay [7], 27.8 µM in [8], 24.7 µM in assay [9] and 31.6 µM in assay [10]. The TGI was 50.4 µM in [1]; 67.9 µM in assay [2]; 93.8 µM in assay [3]; 37.7 µM in assay [4]; 32.9 µM in [5]; above 100 µM in assay [6]. Moreover, the TGI in assay [7] is 34.8 µM; in [8] it was 85.5 µM; in assay [9], above 100 µM; in assay [10], above 100 µM.
As to `O=c1c2c(nc3n1CCS3)[nH]c1cc([N+](=O)[O-])ccc12`, the GI50 was 67.9 µM in [1]; above 100 µM in [2]; above 100 µM in [3]; above 100 µM in [4]; above 100 µM in [5]; above 100 µM in assay [6]. Besides, the GI50 in assay [7] is above 100 µM; in [8] it was above 100 µM; in assay [9], 20.1 µM; in assay [10], above 100 µM. For the same compound, the TGI in assay [1], in [2], in [3], in assay [4], in assay [5] and in assay [6] was above 100 µM throughout. The TGI in [7], in assay [8], in assay [9] and in [10] was above 100 µM each time.
